For assay [1], the system named is nitric oxide production in lipopolysaccharide-treated RAW264.7 cells. Briefly: Inhibition of LPS-induced NO production in RAW264.7 cells (Griess reagent). It is filed as cell-based. The conditions noted are these: Mus musculus, RAW 264.7 cells, compounds 30 min then LPS 1.0 μg/mL for 24 h. As to the method:
RAW264.7 cells were plated at 1 × 10^6 cells/mL and incubated for 18 h. After incubation, the cells were treated with Compounds 1–12 for 30 min and then continuously incubated with LPS (1.0 μg/mL) for 24 h. The inhibitory effects of the isolated compounds on NO production were evaluated by using the Griess reagent and an EIA kit to determine the NO levels, as described previously.
Background: The Griess reaction detects nitrite, a stable product of nitric oxide.

Another assay concerns RAW264.7 cells. Briefly: Cell viability test (MTT assay). It is filed as cell-based. The conditions noted are these: Mus musculus, RAW 264.7 cells, compounds 25 to 150 μM, 24 h. As to the method: RAW264.7 cells were plated at 1 × 10^6 cells/mL and incubated for 18 h followed by the addition of Compounds 1–12 to the cells (25 to 150 μM), and the cells were incubated for 24 h. The cytotoxicity was evaluated by an MTT (3-(4,5-dimethylthiazol-2-yl)-2,5-diphenyltetrazolium bromide) assay. The […] of MTT solution (10 mg/mL in phosphate buffered saline, pH 7.4) were added to the cells 3 h prior to the end of the culture period. The incubation was terminated by the addition of 15% sodium dodecyl sulfate to each well to solubilize the formazan. The absorbance was measured by a microplate reader at 570 nm (OD570-630).
Background: Tetrazolium assays rely on reduction of a dye to a coloured formazan, in cell work by metabolically active cells.

Broadly, the IC50 is the midpoint of a concentration-inhibition curve. Low readings indicate inhibition by little substance, high ones a need for much substance. As for `O=C(/C=C/c1ccc(O)c(O)c1)O[C@@H]1C[C@](O)(C(=O)O)C[C@@H](O)[C@H]1O` [Compound 11, chlorogenic acid], the IC50 in assay [1] was 81.2 ± 0.7 µM; in the assay on RAW264.7 cells it was greater than 100 µM.

Regarding `O=C(C=Cc1ccc(O)c(O)c1)OC1OC(CO)C(O)C(O)C1O` [Compound 8, 1-O-E-caffeoyl-β-D-glucopyranoside], the IC50 is 70.7 ± 1.2 µM in assay [1] and 84.8 ± 5 µM in the assay on RAW264.7 cells.

Regarding `COc1cc(C(O)C(O)CO)ccc1OC1OC(COC(=O)C=Cc2ccc(O)c(O)c2)C(O)C(O)C1O` [Compound 2, 1-O-(7S,8R)-guaiacylglycerol-(6-O-E-caffeoyl)-β-D-glucopyranoside], the IC50 is 71.1 ± 1.9 µM in assay [1] and 87.7 ± 3.5 µM with RAW264.7 cells.

Regarding `O=c1c(O[C@@H]2O[C@H](CO)[C@H](O)[C@H](O)[C@H]2O)c(-c2ccc(O)c(O)c2)oc2cc(O)cc(O)c12` [Compound 3, quercetin-3-O-β-D-galactopyranoside], the IC50 in assay [1] is 81.9 ± 1.9 µM; with RAW264.7 cells, greater than 100 µM.

As to `COc1c(O)cc2c(=O)oc3c(O)c(O)cc4c(=O)oc1c2c34` [Compound 10, 3-O-methylellagic acid], the IC50 in assay [1] was 78 ± 2.3 µM; with RAW264.7 cells it was greater than 100 µM.

Regarding `O=C(C=Cc1ccc(O)c(O)c1)OCC1OC(OCc2ccccc2)C(O)C(O)C1O` [Compound 1, 1-O-benzyl-6-O-E-caffeoyl-β-D-glucopyranoside], the results for the IC50 (in assay [1]; in the assay on RAW264.7 cells) were 81.8 ± 1.3 µM and greater than 100 µM, respectively.

Consider `COc1cc(CCCO)cc(OC)c1O[C@@H]1O[C@H](CO)[C@@H](O)[C@H](O)[C@H]1O` [Compound 7, dihydrosyringin], for which the concentration for half-maximal inhibition (IC50) is 76.2 ± 0.6 µM in assay [1] and greater than 100 µM in the assay on RAW264.7 cells.

For `O=C(C=Cc1ccc(O)c(O)c1)OCC1OC(Oc2c(-c3ccc(O)c(O)c3)oc3cc(O)cc(O)c3c2=O)C(O)C(O)C1O` [Compound 4, quercetin-3-O-(6''-O-E-caffeoyl)-β-D-galactopyranoside], the IC50 in assay [1] was 83.3 ± 0.9 µM; in the assay with RAW264.7 cells, greater than 100 µM.

On to `O=C(C=Cc1ccc(O)c(O)c1)OCC1OC(OC(=O)C=Cc2ccc(O)c(O)c2)C(O)C(O)C1O` [Compound 5, 1,6-di-O-E-caffeoyl-β-D-glucopyranoside], for which the IC50 in assay [1] was 69.5 ± 1.4 µM; with RAW264.7 cells it was greater than 100 µM.
